# In CN101784271A, “孕激素和(6s)-5-甲基四氢叶酸的组合在治疗子宫内膜异位症并同时减轻治疗副作用以及降低怀孕初期的先天畸形的风险中的应用” (priority 2007, dated 2008):
# Legend:
# [1] = system: ovulation (排卵); settings: daily dose; no test or source given; cited from earlier work
# [2] = Clinical study in endometriosis patients, pain by visual analogue scale (VAS); type: in vivo, human; settings: over 6 months
# [3] = cited from earlier work
# [4] = attributed to partial androgenic action, not progestational activity; cited from earlier work
# [5] = 2 mg dienogest daily, 24 weeks, endometriosis patients
compound,measurement,setting,value
CC(=O)O[C@]1(C(C)=O)CC[C@H]2[C@@H]3C=C(Cl)C4=CC(=O)[C@@H]5C[C@@H]5[C@]4(C)[C@H]3CC[C@@]21C [醋酸环丙孕酮],ovulation inhibition dose,[1],1 mg
C[C@]12CCC3=C4CCC(=O)C=C4CC[C@H]3[C@@H]1CC[C@@]2(O)CC#N [DNG],change in pain (VAS) at end of treatment compared with start of study,"[2]; DNG oral 2 mg/d (124 patients) or LA 3.75 mg s.c. every 4 weeks (128 patients), endometriosis diagnosed by laparoscopy",-47.5 mm
same,"statistical comparison of efficacy, DNG versus LA",[2]; DNG oral 2 mg/d vs LA 3.75 mg s.c. every 4 weeks,不劣于LA
same,intolerable menstruation,[3]; [5],没有报道不可耐受的月经
same,patients reporting irregular menstruation,[3]; [5],≤ 90%
same,treatment result compared with danazol or GnRH agonist,[3]; [5],相当
CC(=O)O[C@]1(C(C)=O)CC[C@H]2[C@@H]3C=C(Cl)C4=CC(=O)CC[C@]4(C)[C@H]3CC[C@@]21C [醋酸氯地孕酮],ovulation inhibition dose,[1],1.7 mg
C#C[C@]1(O)CC[C@H]2[C@@H]3CCC4=CC(=O)CC[C@@H]4[C@H]3CC[C@@]21CC [左炔诺孕酮],effect on bone metabolism,[4],对骨代谢的正面影响
C#C[C@]1(O)CC[C@H]2[C@@H]3CCC4=Cc5oncc5C[C@]4(C)[C@H]3CC[C@@]21C [达那唑],side effects of standard endometriosis treatment,"[3]; human, in vivo",显著的雄激素效应
